Three compounds from patent US10501481B2, “Heterocyclic compounds and their use in preventing or treating bacterial infections” (priority 2015, dated 2019) can be followed below.

One assay concerns E. coli RGN238 (OXA-1). Description: MIC broth microdilution, alone and synergy with ceftazidime. As to conditions: Escherichia coli. A general note: In broth dilution the organism is exposed to a series of concentrations in liquid medium.
For assay [1], the system named is P. aeruginosa UFR35 (OXA-23). The assay is described as above. As to conditions: Pseudomonas aeruginosa, read-out: MIC CAZ.
The test system of assay [2] is K. pneumoniae 160143 (TEM-1, SHV-1, CTX-M-15, KPC-2, OXA-1). Described as above. As to conditions: Klebsiella pneumoniae, read-out: MIC CAZ.
The test system of assay [3] is E. cloacae 260508 (TEM-1, CTX-M-15). The assay is described as above. To be noted: Enterobacter cloacae, read-out: MIC CAZ.
Assay [4] relates to K. pneumoniae UFR24 (TEM-1, SHV-2, SHV-11, OXA-1, OXA-48, OXA-47). The assay is described as above. To be noted: Klebsiella pneumoniae, read-out: MIC CAZ.
In assay [5] the test system is K. pneumoniae BAA-1898 (TEM-1, SHV-11, SHV-12, KPC-2). Description: microbe, parasite or virus in culture. The assay is classed as cell-based. To be noted: for MIC: Klebsiella pneumoniae; for MIC of CAZ in combination with compound at 4 μg/mL: strain BAA-1898, compound fixed at 4 μg/mL.
Assay [6] relates to E. coli UFR52 (TEM-1, SHV-12, IMP-8). Description: MIC broth microdilution, alone and synergy with ceftazidime. As to conditions: Escherichia coli, read-out: MIC CAZ.
A further assay relates to E. cloacae P99 (AmpC). Described as above. To be noted: for MIC: Enterobacter cloacae; for MIC of CAZ in combination with compound at 4 μg/mL: strain P99, compound fixed at 4 μg/mL.
For assay [7], the system named is K. pneumoniae UFR77 (CMY-2). The description is as above. As to conditions: Klebsiella pneumoniae, read-out: MIC CAZ.
Assay [8] relates to K. pneumoniae 6299 (TEM-1, SHV-11, OXA-163). Described as above. To be noted: for MIC: Klebsiella pneumoniae.
Assay [9] relates to E. coli UFR18 (CTX-M-15, OXA-204). Described as above. To be noted: Escherichia coli, read-out: MIC CAZ.
Assay [10] relates to K. pneumoniae 200047 (TEM-1, SHV-32, CTX-M-15, OXA-1). Described as above. As to conditions: Klebsiella pneumoniae, read-out: MIC CAZ.
Assay [11] relates to E. coli UFR74 (SHV-1, DHA-1). The description is as above. As to conditions: Escherichia coli, read-out: MIC CAZ.
Assay [12] has as its system K. oxytoca UFR21 (TEM-1, CTX-M-15, OXA-48). Described as above. To be noted: Klebsiella oxytoca, read-out: MIC CAZ.
In assay [13] the test system is P. aeruginosa CIP107051 (TEM-24). The description is as above. As to conditions: for MIC: Pseudomonas aeruginosa; for MIC of CAZ in combination with compound at 4 μg/mL: strain CIP107051, compound fixed at 4 μg/mL.
The subject of assay [14] is K. pneumoniae UFR68 (TEM-1, SHV-11, CTX-M-15, KPC-3). The assay is described as above. As to conditions: Klebsiella pneumoniae, read-out: MIC CAZ.
The subject of assay [15] is E. coli UFR32 (TEM-1, VEB-1, OXA-10). Described as above. As to conditions: Escherichia coli, read-out: MIC CAZ.
The test system of assay [16] is E. coli 190317 (TEM-1, SHV-12, CTX-M-15, OXA-1). The assay is described as above. To be noted: for MIC: Escherichia coli; for MIC of CAZ in combination with compound at 4 μg/mL: strain 190317, compound fixed at 4 μg/mL.
Assay [17] deals with E. cloacae UFR38 (CTX-M-15, NDM-1). Described as above. To be noted: Enterobacter cloacae, read-out: MIC CAZ.
For assay [18], the system named is E. coli UFR61O (TEM-1, KPC-2). Described as above. As to conditions: Escherichia coli, read-out: MIC CAZ.
Assay [19] has as its system P. aeruginosa UFR90 (derepressed AmpC, OprD−). Described as above. To be noted: Pseudomonas aeruginosa, read-out: MIC CAZ.
Assay [20] relates to P. aeruginosa UFR92 (derepressed AmpC, OprD−). The description is as above. As to conditions: Pseudomonas aeruginosa, read-out: MIC CAZ.
The subject of assay [21] is E. coli 131119 (TEM-1, OXA-48). Described as above. To be noted: Escherichia coli.
The subject of assay [22] is C. murliniae 210102 (VIM-4). The assay is described as above. As to conditions: read-out: MIC CAZ.
For assay [23], the system named is E. cloacae UFR70 (TEM-1, CTX-M-15, CMY-2, OXA-1, Porin loss). The description is as above. To be noted: Enterobacter cloacae, read-out: MIC CAZ.
In the next assay the target is AmpC P. aeruginosa (Pseudomonas aeruginosa, UniProt P24735). The assay is described as follows: biochemical. As for the experimental part: Enzyme activity was monitored by spectrophotometric measurement of nitrocefin (NCF-TOKU-E, N005) hydrolysis at 485 nm, at room temperature and in assay buffer A: 100 mM Phosphate pH7, 2% glycerol and 0.1 mg/mL Bovine serum albumin (Sigma, B4287). Enzymes were cloned in E. coli expression vector, expressed and purified in house using classical procedures. To a transparent polystyrene plate (Corning, 3628) were added in each well 5 μL DMSO or inhibitor dilutions in DMSO and 80 μL enzyme in buffer A. Plates were immediately read at 485 nm in a microplate spectrophotometer (BioTek, PowerWave HT) to enable background subtraction. After 30 min of pre-incubation at room temperature, 15 μL of NCF (200 μM final) were finally added in each well. Final enzyme concentrations were 0.1 nM (TEM-1), 0.075 nM (SHV-1), 0.4 nM (CTX-M-15), 1 nM (KPC-2), 0.2 nM (P99 AmpC), 0.2 nM (CMY-37), 0.4 nM (AmpC P. aeruginosa), 0.2 nM (OXA-1), 1.2 nM (OXA-11), 0.4 nM (OXA-15) and 0.3 nM (OXA-48). After 20 min incubation at room temperature, plates were once again read at 485 nm. Enzyme activity was obtained by subtracting the final signal by the background, and was converted to enzyme inhibition using non inhibited wells. IC50 curves were fitted to a classical Langmuir equilibrium model with Hill slope using XLFIT (IDBS).

In another assay the target is T1, OXA-48 (Klebsiella pneumoniae, UniProt Q6XEC0).
T1 construct: made in house; host or cells: E. coli
The assay is described as follows: β-lactamase inhibitory activity, nitrocefin hydrolysis. The assay is classed as biochemical.

For another assay, the target named is T2, SHV-1 (Klebsiella pneumoniae, UniProt P0AD64).
T2 construct: made in house; host or cells: E. coli
The description is as above. The assay is classed as biochemical.

Another assay has as its target T3, OXA-1 (Escherichia coli, UniProt P13661).
T3 construct: made in house; host or cells: E. coli
Described as above. Type of assay: biochemical.

A further assay concerns the target T4, CTX-M-15 (Escherichia coli, UniProt Q9EXV5).
T4 construct: made in house; host or cells: E. coli
The assay is described as above. The assay is classed as biochemical.

In the next assay the target is T5, TEM-1 (Escherichia coli, UniProt P62593).
T5 construct: made in house; host or cells: E. coli
The assay is described as above. The assay is classed as biochemical. As to conditions: class (A); 30 min pre-incubation; nitrocefin 200 μM.

For another assay, the target named is T6, OXA-11 (Pseudomonas aeruginosa, UniProt Q06778).
T6 construct: made in house; host or cells: E. coli
The assay is described as above. The assay is classed as biochemical.

For a further assay, the target named is T7, KPC-2 (Klebsiella pneumoniae, UniProt Q9F663).
T7 construct: made in house; host or cells: E. coli
Described as above. The assay is classed as biochemical.

Assay [24] relates to P. aeruginosa CIP105250 (OXA-15). The assay is described as follows: MIC broth microdilution, compounds alone. As to conditions: Pseudomonas aeruginosa, CIP105250, read-out: MIC compounds of the invention alone.
A further assay addresses T8, P99 AmpC (Enterobacter cloacae, UniProt P05364).
T8 construct: made in house; host or cells: E. coli
The assay is described as follows: β-lactamase inhibitory activity, nitrocefin hydrolysis. The assay is classed as biochemical. To be noted: class (C); 30 min pre-incubation; nitrocefin 200 μM.

In another assay the target is T9, OXA-15 (Pseudomonas aeruginosa, UniProt Q51574).
T9 construct: made in house; host or cells: E. coli
The assay is described as above. Type of assay: biochemical.

Setting [25] is: read-out: MIC compounds of the invention alone.
The mark [26] stands for this setting: BAA1898, read-out: MIC compounds of the invention alone.
The mark [27] stands for this setting: CIP107051, read-out: MIC compounds of the invention alone.

Converted amounts (≈) assume the structure as drawn. Read-outs that look alike come from different tables or passages of the source.

T8 sequence (P05364 21-381): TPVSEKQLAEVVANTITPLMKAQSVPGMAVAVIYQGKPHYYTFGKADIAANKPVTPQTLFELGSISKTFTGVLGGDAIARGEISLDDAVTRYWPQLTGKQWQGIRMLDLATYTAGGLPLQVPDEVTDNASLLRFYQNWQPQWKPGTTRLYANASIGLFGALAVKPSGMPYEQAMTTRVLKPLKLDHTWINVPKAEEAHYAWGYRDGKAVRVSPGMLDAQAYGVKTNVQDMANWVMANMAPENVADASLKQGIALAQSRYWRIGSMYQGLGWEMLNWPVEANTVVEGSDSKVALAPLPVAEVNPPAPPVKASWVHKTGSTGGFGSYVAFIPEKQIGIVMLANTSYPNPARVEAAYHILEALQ
T5 sequence (P62593 24-286 limits assumed): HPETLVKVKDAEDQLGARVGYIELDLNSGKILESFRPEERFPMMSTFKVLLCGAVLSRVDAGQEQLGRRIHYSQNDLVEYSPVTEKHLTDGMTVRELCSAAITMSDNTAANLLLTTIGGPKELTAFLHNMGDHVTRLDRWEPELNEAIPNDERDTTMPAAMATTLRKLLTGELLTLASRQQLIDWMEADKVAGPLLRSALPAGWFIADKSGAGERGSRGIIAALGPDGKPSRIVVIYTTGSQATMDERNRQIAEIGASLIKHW
T6 sequence (Q06778 21-266): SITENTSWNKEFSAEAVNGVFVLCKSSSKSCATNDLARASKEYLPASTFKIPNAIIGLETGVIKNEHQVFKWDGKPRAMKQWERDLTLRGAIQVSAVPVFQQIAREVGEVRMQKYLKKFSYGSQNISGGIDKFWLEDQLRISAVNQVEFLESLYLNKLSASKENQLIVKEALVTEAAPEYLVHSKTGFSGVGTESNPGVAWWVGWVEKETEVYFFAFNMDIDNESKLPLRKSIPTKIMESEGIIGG
T9 sequence (Q51574 22-275): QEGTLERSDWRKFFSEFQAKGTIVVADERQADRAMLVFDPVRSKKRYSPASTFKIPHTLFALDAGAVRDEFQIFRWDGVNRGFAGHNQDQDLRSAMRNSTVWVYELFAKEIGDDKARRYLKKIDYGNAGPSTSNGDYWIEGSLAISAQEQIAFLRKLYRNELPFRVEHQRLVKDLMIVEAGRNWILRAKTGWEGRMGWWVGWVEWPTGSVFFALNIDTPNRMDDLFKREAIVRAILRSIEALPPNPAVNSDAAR
T1 sequence (Q6XEC0 23-265 limits assumed): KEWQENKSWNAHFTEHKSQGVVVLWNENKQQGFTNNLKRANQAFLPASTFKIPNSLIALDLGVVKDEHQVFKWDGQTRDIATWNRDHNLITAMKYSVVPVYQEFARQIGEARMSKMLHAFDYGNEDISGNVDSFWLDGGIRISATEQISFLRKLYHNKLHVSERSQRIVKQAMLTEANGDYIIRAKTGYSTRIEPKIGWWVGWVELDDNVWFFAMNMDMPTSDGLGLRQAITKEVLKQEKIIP
AmpC P. aeruginosa, sequence (P24735 27-397): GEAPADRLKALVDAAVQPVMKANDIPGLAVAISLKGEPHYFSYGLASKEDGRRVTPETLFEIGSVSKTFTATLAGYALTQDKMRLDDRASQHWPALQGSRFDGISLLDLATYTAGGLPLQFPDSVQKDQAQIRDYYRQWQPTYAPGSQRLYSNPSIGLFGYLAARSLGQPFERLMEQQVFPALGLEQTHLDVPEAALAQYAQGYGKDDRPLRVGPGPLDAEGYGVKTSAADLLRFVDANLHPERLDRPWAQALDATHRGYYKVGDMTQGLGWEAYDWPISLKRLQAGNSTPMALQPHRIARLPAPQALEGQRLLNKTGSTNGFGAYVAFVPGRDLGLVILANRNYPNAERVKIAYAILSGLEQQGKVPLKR
T2 sequence (P0AD64 22-286): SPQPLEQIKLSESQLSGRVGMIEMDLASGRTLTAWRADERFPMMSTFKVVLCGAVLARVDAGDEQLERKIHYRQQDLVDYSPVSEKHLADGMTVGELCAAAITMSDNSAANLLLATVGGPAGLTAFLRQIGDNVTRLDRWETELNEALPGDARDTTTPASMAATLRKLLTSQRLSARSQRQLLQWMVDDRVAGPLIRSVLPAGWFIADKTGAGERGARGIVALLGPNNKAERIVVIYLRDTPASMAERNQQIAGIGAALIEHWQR
T3 sequence (P13661 26-276): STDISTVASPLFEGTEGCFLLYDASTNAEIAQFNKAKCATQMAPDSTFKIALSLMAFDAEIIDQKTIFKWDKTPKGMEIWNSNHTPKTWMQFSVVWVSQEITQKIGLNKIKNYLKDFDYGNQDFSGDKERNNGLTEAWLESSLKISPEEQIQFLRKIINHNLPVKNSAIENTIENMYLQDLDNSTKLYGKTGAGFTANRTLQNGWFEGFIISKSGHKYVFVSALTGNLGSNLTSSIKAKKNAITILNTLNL
T7 sequence (Q9F663 25-293 limits assumed): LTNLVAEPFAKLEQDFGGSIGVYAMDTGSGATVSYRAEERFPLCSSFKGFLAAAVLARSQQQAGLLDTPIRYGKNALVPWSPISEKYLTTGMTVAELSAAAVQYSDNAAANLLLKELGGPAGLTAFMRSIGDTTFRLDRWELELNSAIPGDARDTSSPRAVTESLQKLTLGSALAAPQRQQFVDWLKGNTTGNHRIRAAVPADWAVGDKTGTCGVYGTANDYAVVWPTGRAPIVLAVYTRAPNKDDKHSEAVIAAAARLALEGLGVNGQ
T4 sequence (Q9EXV5 entry or part of it): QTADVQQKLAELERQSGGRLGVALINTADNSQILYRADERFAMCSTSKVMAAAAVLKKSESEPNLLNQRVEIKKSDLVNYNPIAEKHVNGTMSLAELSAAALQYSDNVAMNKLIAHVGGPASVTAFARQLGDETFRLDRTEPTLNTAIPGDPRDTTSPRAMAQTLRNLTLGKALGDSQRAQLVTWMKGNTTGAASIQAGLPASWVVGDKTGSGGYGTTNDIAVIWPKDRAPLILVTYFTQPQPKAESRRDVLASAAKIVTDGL
Description for OXA-11: (§1) Enzyme activity was monitored by spectrophotometric measurement of nitrocefin (NCF-TOKU-E, N005) hydrolysis at 485 nm, at room temperature and in assay buffer A: 100 mM Phosphate pH7, 2% glycerol and 0.1 mg/mL Bovine serum albumin (Sigma, B4287). […] To a transparent polystyrene plate (Corning, 3628) were added in each well 5 μL DMSO or inhibitor dilutions in DMSO and 80 μL enzyme in buffer A. Plates were immediately read at 485 nm in a microplate spectrophotometer (BioTek, PowerWave HT) to enable background subtraction. After 30 min of pre-incubation at room temperature, 15 μL of NCF (200 μM final) were finally added in each well. Final enzyme concentrations were 0.1 nM (TEM-1), 0.075 nM (SHV-1), 0.4 nM (CTX-M-15), 1 nM (KPC-2), 0.2 nM (P99 AmpC), 0.2 nM (CMY-37), 0.4 nM (AmpC P. aeruginosa), 0.2 nM (OXA-1), 1.2 nM (OXA-11), 0.4 nM (OXA-15) and 0.3 nM (OXA-48). After 20 min incubation at room temperature, plates were once again read at 485 nm. Enzyme activity was obtained by subtracting the final signal by the background, and was converted to enzyme inhibition using non inhibited wells. IC50 curves were fitted to a classical Langmuir equilibrium model with Hill slope using XLFIT (IDBS).
Description for P99 AmpC: as §1

Consider `CC(C)(O/N=C(\C(=O)N[C@@H]1C(=O)N2C(C(=O)[O-])=C(C[n+]3ccccc3)CS[C@H]12)c1csc(N)n1)C(=O)O` [CAZ, ceftazidime, reference compound], for which the MIC in the assay with E. coli RGN238 (OXA-1) (read-out: MIC CAZ) is 0.5 µg/mL; in [1], 2 µg/mL; in assay [2], 128 µg/mL; in assay [3], 128 µg/mL; in assay [4] it was over 128 µg/mL; in [5] (BAA1898, read-out: MIC CAZ), 256 µg/mL (≈ 468 µM). The MIC was over 128 µg/mL in assay [6]; 128 µg/mL in the assay on E. cloacae P99 (AmpC) (read-out: MIC CAZ); 64 µg/mL in assay [7]; 256 µg/mL in assay [8] (read-out: MIC CAZ); over 128 µg/mL in [9]; 128 µg/mL in assay [10]. Besides, the MIC in assay [11] was 64 µg/mL; in [12] it was 128 µg/mL; in assay [13] (CIP107051, read-out: MIC CAZ), 256 µg/mL; in assay [14], over 128 µg/mL; in [15], over 128 µg/mL; in assay [16] (read-out: MIC CAZ) it was 128 µg/mL. For the same compound, the MIC was over 128 µg/mL in [17]; 128 µg/mL in assay [18]; 64 µg/mL in [19]; 32 µg/mL in assay [20]; 0.5 µg/mL in assay [21] (read-out: MIC CAZ); over 128 µg/mL in assay [22]. In addition, in assay [23], the MIC is over 128 µg/mL.

For `CC(C)(C)OC(=O)NCCn1c2c(sc1=O)C1CN(C2)C(=O)N1OS(=O)(=O)[O-].[Na+]` (stereo not drawn) [Example 3, Sodium [5-(2-(tert-butoxycarbonylamino)ethyl)-4,9-dioxo-3-thia-5,8,10-triaza-tricyclo[6.2.1.0^2.6]undec-2(6)-en-10-yl] sulfate], the half-inhibitory concentration (IC50) on AmpC P. aeruginosa turned out to be 200 nM; on OXA-48, 1.7 nM; at SHV-1, 20 nM; against OXA-1, 130 nM; against CTX-M-15, 0.49 nM; against TEM-1 it was 5.8 nM. Further, the IC50 on OXA-11 amounted to 16 nM; at KPC-2, 3.4 nM; against P99 AmpC, 5.9 nM; against OXA-15, 97 nM. Also, the MIC (in the assay on E. coli RGN238 (OXA-1) (setting [25]); in assay [5] (setting [26]); with E. cloacae P99 (AmpC) (setting [25]); in [8] (setting [25]); in assay [13] (setting [27]); in [24]) was over 32 µg/mL each time. Moreover, the MIC in assay [16] (setting [25]) and in assay [21] (setting [25]) was over 32 µg/mL each time. In addition, the “MIC of CAZ in combination with compound at 4 μg/mL” value in assay [5] was over 128 µg/mL; in the assay on E. cloacae P99 (AmpC) it was 128 µg/mL; in assay [13] it was 64 µg/mL; in assay [16], 32 µg/mL.

For the compound `N=C(N)NCCn1c2c(sc1=O)C1CN(C2)C(=O)N1OS(=O)(=O)[O-].[Na+]` (stereo not drawn) [Example 6, Sodium and 2,2,2-trifluoroacetate [5-(2-quanidiniumethyl)-4,9-dioxo-3-thia-5,8,10-triaza-tricyclo[6.2.1.0^2.6]undec-2(6)-en-10-yl] sulfate], the IC50 was found to be 1500 nM at AmpC P. aeruginosa; 1.6 nM against OXA-48; 12 nM at SHV-1; 1700 nM against OXA-1; 5.4 nM against CTX-M-15; 7 nM against TEM-1. Also, the IC50 on OXA-11 is 130 nM; against KPC-2, 5.7 nM; against P99 AmpC, 380 nM; on OXA-15, 120 nM. The MIC was 4 µg/mL in the assay with E. coli RGN238 (OXA-1) (setting [25]); 16 µg/mL in [5] (setting [26]); 1 µg/mL in the assay on E. cloacae P99 (AmpC) (setting [25]); over 32 µg/mL in assay [8] (setting [25]); 8 µg/mL in [13] (setting [27]); 8 µg/mL in [24]. Besides, the MIC in assay [16] (setting [25]) is 1 µg/mL. The “MIC of CAZ in combination with compound at 4 μg/mL” value in [5] was at most 0.125 µg/mL; in the assay with E. cloacae P99 (AmpC) it was under 0.25 µg/mL; in assay [8] (strain 6299, compound fixed at 4 μg/mL) it was at most 0.125 µg/mL; in assay [13], 8 µg/mL; in [16], under 0.25 µg/mL.

For orientation: IC50 means the concentration that gives 50% inhibition. The low end stands for inhibition by little substance, the high end for a need for much substance.
